Data: EP0745595A1, “3-(3-Aryloxyphenyl)-1-(substituted methyl)-s-triazine-2,4,6-oxo or thiotrione herbicidal agents” (American Cyanamid Company, priority 1995, dated 1996)

Tests used:
Format in all cases: in vivo
[1] = tested on: ABUTILON THEOPHRASTI, MEDIC.; assay: Postemergence herbicidal evaluation, ABUTH (Velvetleaf); settings: rated four to five weeks after treatment, averaged
In short: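 Velvetleaf (Abutilon theophrasti) seedlings were raised in jiffy flats for about two weeks and then sprayed postemergence. The test compound was dispersed in a 50/50 acetone/water mixture containing 0.5% TWEEN®20 and applied through a nozzle operating at 40 psi. Plants were kept on greenhouse benches and rated 0-9 four to five weeks after treatment.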

CHENOPODIUM ALBUM, L. [2] = assay: Postemergence herbicidal evaluation, CHEAL (Lambsquarters, Common); settings: rated four to five weeks after treatment, averaged
In short: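 Seedlings of common lambsquarters (Chenopodium album) were raised in jiffy flats for roughly two weeks, then sprayed postemergence through a nozzle at 40 psi with test compound dispersed in 50/50 acetone/water containing 0.5% TWEEN®20 surfactant. Plants were kept on greenhouse benches under standard care and rated visually on a 0-9 scale versus controls.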

IPOMOEA SPP. [3] = assay: Postemergence herbicidal evaluation, IPOSS (Morningglory spp.); settings: rated four to five weeks after treatment, averaged
In short: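 Seedlings of morningglory (Ipomoea spp.) were raised in jiffy flats for roughly two weeks. They were then sprayed postemergence through a nozzle at 40 psi with test compound dispersed in 50/50 acetone/water containing 0.5% TWEEN®20 surfactant. Plants were kept on greenhouse benches under standard care and visually rated 0-9 against controls four to five weeks after treatment.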

[4] = tested on: ABUTILON THEOPHRASTI, MEDIC.; assay: Preemergence herbicidal evaluation, ABUTH (Velvetleaf); settings: four to five weeks after treatment
In short: (§1)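 Seeds sown in potting soil cups, then sprayed preemergence with aqueous acetone compound solution at about 0.125 to 0.50 kg per hectare. Greenhouse-grown, rated 4–5 weeks after treatment on a 0–9 visual scale against control.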

CHENOPODIUM ALBUM, L. [5] = assay: Preemergence herbicidal evaluation, CHEAL (Lambsquarters, Common); settings: four to five weeks after treatment
In short: as §1

IPOMOEA SPP. [6] = assay: Preemergence herbicidal evaluation, IPOSS (Morningglory spp.); settings: four to five weeks after treatment
In short: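 Seeds of morningglory (Ipomoea spp.) were mixed with potting soil and sown on roughly one inch of soil in pint cups for a preemergence herbicide test. The cups were put on greenhouse benches, watered, and maintained by standard greenhouse practice. Four to five weeks after treatment each cup was scored visually on a 0-9 scale against a control.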

GALIUM APARINE = assay: Preemergence herbicidal evaluation, GALAP (Galium); settings: four to five weeks after treatment
In short: as §1

[7] = tested on: CYPERUS SEROTINUS, ROTTB.; assay: Preemergence weed control under flooded paddy conditions, CYPSE (Flatsedge); settings: preemergence weeds, rated three to four weeks after treatment
In short: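 Seeds or propagules were planted 0.5 cm deep in silt loam, with flood water held at 1.5 to 3 cm. Compound in 50/50 aqueous/acetone was pipetted into the flood water at about 0.5, 0.25, 0.125 and 0.063 kg/ha. Injury was rated visually on a 0-9 scale against a control 3-4 weeks after treatment.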

[8] = tested on: ORYZA SATIVA, L. TEBONNET; assay: Rice tolerance to post-transplant applications under flooded paddy conditions, ORYSAT (Rice, Tebonnet); settings: post-transplant rice, rated three to four weeks after treatment;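 note: applied to flooded soil surface three days after transplanting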
In short: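 Two ten-day-old Tebonnet rice seedlings transplanted into silt loam, flooded 1.5–3 cm; three days later the water surface treated with compounds in acetone/water at about 0.5, 0.25, 0.125 and 0.063 kg/ha. Visual 0–9 injury rating versus control after 3–4 weeks in greenhouse.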

ECHINOCHLOA CRUS-GALLI = assay: Preemergence evaluation in the presence of transplanted rice under flooded paddy conditions (Example 43), ECHCG (Barnyard Grass); set-up: key: visual rating on a 0-9 scale, compared with control; settings: applied three days after sowing, 25 to 30 days after treatment
Method: (§2) Results of herbicide evaluation are expressed on a rating scale (0-9). The scale is based upon a visual observation of plant stand, vigor, malformation, size, chlorosis and overall plant appearance as compared with a control.
(§3) In this example, Deluvian paddy soil (Toyokawa paddy soil) is placed in plastic pots, 100cm^2 x 9 cm in depth. Water is added to the level of the soil surface in the pot and the mixture is paddled 3 cm in depth.
(§4) Pots are then variously sown with monocotyledenous weed seeds and tubers at 0-2 cm in soil depth, as well as transplanted rice plants at the 2.5 leaf stage. The rice plants are transplanted at about 3 cm soil depth. Water is then added to all of the pots to 3 cm deep and kept at a depth of 3 cm for the duration of the test. Test compounds are applied in the manner described in Example 42 three days after transplanting the rice plants and sowing the weed seeds and tubers. The pots are then placed on greenhouse benches and cared for in the conventional manner. Tests are examined at 25 to 30 days after treatment and rated according to the rating system provided in Example 40. The compounds evaluated are reported by compound number given in Example 40.

SAGITTARIA PYGMAEA = assay: Preemergence evaluation in the presence of transplanted rice under flooded paddy conditions (Example 43), SAGPY (Arrowhead (Pygmaea)); set-up: key: visual rating on a 0-9 scale, compared with control; settings: applied three days after sowing, 25 to 30 days after treatment
Method: as §2, §3, §4

[…] = Preemergence evaluation in the presence of transplanted rice under flooded paddy conditions (Example 43), MOOVA (Monochoria); settings: applied three days after sowing, 25 to 30 days after treatment
Method: as §2, §3, §4

CYPERUS DIFFORMIS = assay: Preemergence evaluation in the presence of transplanted rice under flooded paddy conditions (Example 43), CYPDI (Flatsedge, smallflower); set-up: key: visual rating on a 0-9 scale, compared with control; settings: applied three days after sowing, 25 to 30 days after treatment
Method: as §2, §3, §4

SCIRPUS JUNCOIDES = assay: Preemergence evaluation in the presence of transplanted rice under flooded paddy conditions (Example 43), SCPJU (Bulrush, Japanese); set-up: key: visual rating on a 0-9 scale, compared with control; settings: applied three days after sowing, 25 to 30 days after treatment
Method: as §2, §3, §4

[9] = tested on: ORYZA SATIVA, L. CV. KOSHIHIKARI; assay: Post-transplant rice evaluation under flooded paddy conditions (Example 43), ORYSAK (Rice, Koshihikari); set-up: key: visual rating on a 0-9 scale, compared with control; settings: applied three days after transplanting rice, 25 to 30 days after treatment
Method: as §2, §3, §4

CCOC(=O)Cn1c(=O)[nH]c(=O)n(-c2cc(Oc3ccc(C(F)(F)F)cc3Cl)ccc2[N+](=O)[O-])c1=O [Compound 5, Ethyl 3-{5-[(2-chloro-α,α,α-trifluoro-p-tolyl)oxy]-2-nitrophenyl}tetrahydro-2,4,6-trioxo-s-triazine-1(2H)-acetate]
1.0: Herbicidal effect rating, SAGPY (SAGITTARIA PYGMAEA; 0.032 kg/ha)
9.0: ABUTH, herbicide rating (0-9) ([1]; Rate 0.125 kg/ha) | ABUTH, herbicide rating (0-9) ([1]; Rate 0.250 kg/ha) | ABUTH, herbicide rating (0-9) ([1]; Rate 0.500 kg/ha) | IPOSS, herbicide rating (0-9) (IPOMOEA SPP. [3]; Rate 0.125 kg/ha) | IPOSS, herbicide rating (0-9) (IPOMOEA SPP. [3]; Rate 0.250 kg/ha) | IPOSS, herbicide rating (0-9) (IPOMOEA SPP. [3]; Rate 0.500 kg/ha) | ABUTH rating ([4]; Rate 0.125 kg/ha) | ABUTH rating ([4]; Rate 0.250 kg/ha) | ABUTH rating ([4]; Rate 0.500 kg/ha) | CHEAL rating (CHENOPODIUM ALBUM, L. [5]; Rate 0.125 kg/ha) | CHEAL rating (CHENOPODIUM ALBUM, L. [5]; Rate 0.250 kg/ha) | CHEAL rating (CHENOPODIUM ALBUM, L. [5]; Rate 0.500 kg/ha) | IPOSS rating (IPOMOEA SPP. [6]; Rate 0.125 kg/ha) | IPOSS rating (IPOMOEA SPP. [6]; Rate 0.250 kg/ha) | IPOSS rating (IPOMOEA SPP. [6]; Rate 0.500 kg/ha) | GALAP rating (GALIUM APARINE; Rate 0.125 kg/ha) | GALAP rating (GALIUM APARINE; Rate 0.250 kg/ha) | GALAP rating (GALIUM APARINE; Rate 0.500 kg/ha) | CYPSE herbicidal rating ([7]; Rate 0.125 kg/ha) | CYPSE herbicidal rating ([7]; Rate 0.250 kg/ha) | CYPSE herbicidal rating ([7]; Rate 0.500 kg/ha) | Herbicidal effect rating, ECHCG (ECHINOCHLOA CRUS-GALLI; 0.250 kg/ha) | Herbicidal effect rating, SAGPY (SAGITTARIA PYGMAEA; 0.125 kg/ha) | Herbicidal effect rating, MOOVA ([…]; 0.032 kg/ha) | Herbicidal effect rating, MOOVA ([…]; 0.063 kg/ha) | Herbicidal effect rating, MOOVA ([…]; 0.125 kg/ha) | Herbicidal effect rating, MOOVA ([…]; 0.250 kg/ha) | Herbicidal effect rating, CYPDI (CYPERUS DIFFORMIS; 0.063 kg/ha) | Herbicidal effect rating, CYPDI (CYPERUS DIFFORMIS; 0.125 kg/ha) | Herbicidal effect rating, CYPDI (CYPERUS DIFFORMIS; 0.250 kg/ha) | Herbicidal effect rating, SCPJU (SCIRPUS JUNCOIDES; 0.125 kg/ha) | Herbicidal effect rating, SCPJU (SCIRPUS JUNCOIDES; 0.250 kg/ha)
4.3: ORYSAT herbicidal rating (rice tolerance) ([8]; Rate 0.125 kg/ha)
5.0: ORYSAT herbicidal rating (rice tolerance) ([8]; Rate 0.250 kg/ha)
4.0: Herbicidal effect rating, SCPJU (SCIRPUS JUNCOIDES; 0.032 kg/ha)
0.0: Herbicidal effect rating, ORYSAK ([9]; 0.032 kg/ha) | Herbicidal effect rating, ORYSAK ([9]; 0.063 kg/ha)
5.3: ORYSAT herbicidal rating (rice tolerance) ([8]; Rate 0.500 kg/ha)
2.0: Herbicidal effect rating, ORYSAK ([9]; 0.125 kg/ha) | Herbicidal effect rating, ORYSAK ([9]; 0.250 kg/ha)
3.0: ORYSAT herbicidal rating (rice tolerance) ([8]; Rate 0.063 kg/ha) | Herbicidal effect rating, SAGPY (SAGITTARIA PYGMAEA; 0.063 kg/ha)
8.0: CHEAL, herbicide rating (0-9) (CHENOPODIUM ALBUM, L. [2]; Rate 0.125 kg/ha) | CHEAL, herbicide rating (0-9) (CHENOPODIUM ALBUM, L. [2]; Rate 0.250 kg/ha) | CHEAL, herbicide rating (0-9) (CHENOPODIUM ALBUM, L. [2]; Rate 0.500 kg/ha) | Herbicidal effect rating, ECHCG (ECHINOCHLOA CRUS-GALLI; 0.032 kg/ha) | Herbicidal effect rating, ECHCG (ECHINOCHLOA CRUS-GALLI; 0.063 kg/ha) | Herbicidal effect rating, ECHCG (ECHINOCHLOA CRUS-GALLI; 0.125 kg/ha) | Herbicidal effect rating, SAGPY (SAGITTARIA PYGMAEA; 0.250 kg/ha) | Herbicidal effect rating, CYPDI (CYPERUS DIFFORMIS; 0.032 kg/ha)
6.0: Herbicidal effect rating, SCPJU (SCIRPUS JUNCOIDES; 0.063 kg/ha)
